Data on one compound can be found in US9643995B2, “Triterpene glycoside and triterpene compositions and methods of using same” (Research Foundation of the City University of New York, priority 2013, dated 2017).

For data set [1] the following is noted: rat, in vivo, 35.7 mg/kg; cited from earlier work.
Data set [2] has as its system MDA-MB-453 cells. The experiment in a line: Apoptosis: caspase 3 activity. Type of data set: cell-based, human. The settings on record: actein 2 μg/ml, Herceptin 16 μg/ml, 48 h.
Another data set relates to Her2. Nature of the data set: Western blot analysis of Her2 protein level. The settings on record: 40 μg/ml, 24 h, normalized to β-acetin. Type of data set: cell-based. From the text:
(§1) Effect of actein on the level of Her2 protein: The effect of actein on the level of Her2 and activated Her2 (p-Her2) protein was examined using Western blot analysis. […] The results validate an effect of actein on the Her2 pathway.

The subject of the next data set is MCF10F. The experiment in a line: Growth inhibition of nonmalignant mammary epithelial cells by actein. It is filed as cell-based, human.
A further data set has as its system calcium channels. Nature of the data set: Calcium release from cells. Type of data set: cell-based. The following applies: low concentrations (100 nM); stated as believed mode of action.
Data set [3] concerns MDA-MB-453 cells. The experiment in a line: Apoptosis: DNA fragmentation. Type of data set: cell-based, human. The settings on record: actein 2 μg/ml, Herceptin 16 μg/ml, 48 h.
Another data set has as its system activated Her2 (p-Her2). Nature of the data set: Western blot analysis of activated Her2 protein level. The settings on record: 40 μg/ml, 24 h, normalized to β-acetin. Type of data set: cell-based.
Description: as §1

Molecules are shown by their SMILES. Converted amounts (≈) assume the structure as drawn.

In the case of `CC(=O)O[C@@H]1C[C@@]23C[C@@]24CC[C@H](O[C@@H]2OC[C@@H](O)[C@H](O)[C@H]2O)C(C)(C)[C@@H]4CC[C@H]3[C@]2(C)C[C@@H]3O[C@]4(C[C@@H](C)[C@@H]3[C@@]12C)O[C@H](O)[C@@]1(C)O[C@@H]41` [actein, Actein], in data set [1], the peak serum level result is “about 2.4 μg/ml” and the “time of peak serum level” value was 6 h. In addition, the “caspase 3 activity” value with MDA-MB-453 cells [2] is 1.29 fold relative to control. The “level of Her2 protein” value with Her2 is 0.72 fold. In the data set with MCF10F, this compound returned an IC50 of 42 mg/L (≈ 62.1 µM). Besides, the “effect on calcium channels” value in the data set on calcium channels is “immediately opens calcium channels and releases calcium from cells”. The DNA fragmentation with MDA-MB-453 cells [3] is 0.89 fold relative to control. Further, the “level of p-Her2 protein” value in the data set on activated Her2 (p-Her2) was determined as 0.37 fold.
